Measurements taken from PMC4512239 (Clinical cancer research : an official journal of the …, 2015).
Entries after “also recorded” stand apart in the source; their conditions may differ.

Assay: phase I safety and tolerability
Assay type: in vivo, human

CNC(=O)c1cccc(-c2ccc3c(N4CCOC[C@@H]4C)nc(N4CCOC[C@@H]4C)nc3n2)c1 [AZD2014]
Fatigue, Any grade (Part A 70mg BD solution (N=5)): 3 (60.0) Number (%) of patients
Fatigue, CTCAE grade 1-2 (Part A 70mg BD solution (N=5)): 2 (40.0) Number (%) of patients
Hypokalemia, Any grade (Part A 70mg BD solution (N=5)): 1 (20.0) Number (%) of patients
Hypokalemia, CTCAE grade 1-2 (Part A 70mg BD solution (N=5)): 1 (20.0) Number (%) of patients
Hypokalemia, CTCAE grade >=3 (Part A 70mg BD solution (N=5)): 0 Number (%) of patients
Lower respiratory tract infection, Any grade (Part A 70mg BD solution (N=5)): 1 (20.0) Number (%) of patients
Lower respiratory tract infection, CTCAE grade 1-2 (Part A 70mg BD solution (N=5)): 1 (20.0) Number (%) of patients
Lower respiratory tract infection, CTCAE grade >=3 (Part A 70mg BD solution (N=5)): 0 Number (%) of patients
Mucositis, Any grade (Part A 70mg BD solution (N=5)): 5 (100.0) Number (%) of patients
Mucositis, CTCAE grade 1-2 (Part A 70mg BD solution (N=5)): 3 (60.0) Number (%) of patients
Mucositis, CTCAE grade >=3 (Part A 70mg BD solution (N=5)): 2 (40.0) Number (%) of patients
Nausea, Any grade (Part A 70mg BD solution (N=5)): 3 (60.0) Number (%) of patients
Nausea, CTCAE grade 1-2 (Part A 70mg BD solution (N=5)): 3 (60.0) Number (%) of patients
Nausea, CTCAE grade >=3 (Part A 70mg BD solution (N=5)): 0 Number (%) of patients
Pruritus, Any grade (Part A 70mg BD solution (N=5)): 0 Number (%) of patients
Pruritus, CTCAE grade 1-2 (Part A 70mg BD solution (N=5)): 0 Number (%) of patients
Pruritus, CTCAE grade >=3 (Part A 70mg BD solution (N=5)): 0 Number (%) of patients
Rash, Any grade (Part A 70mg BD solution (N=5)): 1 (20.0) Number (%) of patients
Rash, CTCAE grade 1-2 (Part A 70mg BD solution (N=5)): 0 Number (%) of patients
Rash, CTCAE grade >=3 (Part A 70mg BD solution (N=5)): 1 (20.0) Number (%) of patients
Vomiting, Any grade (Part A 70mg BD solution (N=5)): 0 Number (%) of patients
Vomiting, CTCAE grade 1-2 (Part A 70mg BD solution (N=5)): 0 Number (%) of patients
Vomiting, CTCAE grade >=3 (Part A 70mg BD solution (N=5)): 0 Number (%) of patients
Anemia, Any grade (Part A 100mg BD solution (N=4)): 1 (25.0) Number (%) of patients
Anemia, CTCAE grade 1-2 (Part A 100mg BD solution (N=4)): 0 Number (%) of patients
Anemia, CTCAE grade >=3 (Part A 100mg BD solution (N=4)): 1 (25.0) Number (%) of patients
Back pain, Any grade (Part A 100mg BD solution (N=4)): 2 (50.0) Number (%) of patients
Back pain, CTCAE grade 1-2 (Part A 100mg BD solution (N=4)): 2 (50.0) Number (%) of patients
Back pain, CTCAE grade >=3 (Part A 100mg BD solution (N=4)): 0 Number (%) of patients
Constipation, Any grade (Part A 100mg BD solution (N=4)): 1 (25.0) Number (%) of patients
Constipation, CTCAE grade 1-2 (Part A 100mg BD solution (N=4)): 1 (25.0) Number (%) of patients
Constipation, CTCAE grade >=3 (Part A 100mg BD solution (N=4)): 0 Number (%) of patients
Cough, Any grade (Part A 100mg BD solution (N=4)): 0 Number (%) of patients
Cough, CTCAE grade 1-2 (Part A 100mg BD solution (N=4)): 0 Number (%) of patients
Cough, CTCAE grade >=3 (Part A 100mg BD solution (N=4)): 0 Number (%) of patients
Decreased appetite, Any grade (Part A 100mg BD solution (N=4)): 4 (100.0) Number (%) of patients
Decreased appetite, CTCAE grade 1-2 (Part A 100mg BD solution (N=4)): 4 (100.0) Number (%) of patients
Decreased appetite, CTCAE grade >=3 (Part A 100mg BD solution (N=4)): 0 Number (%) of patients
Diarrhea, Any grade (Part A 100mg BD solution (N=4)): 1 (25.0) Number (%) of patients
Diarrhea, CTCAE grade 1-2 (Part A 100mg BD solution (N=4)): 1 (25.0) Number (%) of patients
Diarrhea, CTCAE grade >=3 (Part A 100mg BD solution (N=4)): 0 Number (%) of patients
Dry mouth, Any grade (Part A 100mg BD solution (N=4)): 1 (25.0) Number (%) of patients
Dry mouth, CTCAE grade 1-2 (Part A 100mg BD solution (N=4)): 1 (25.0) Number (%) of patients
Dry mouth, CTCAE grade >=3 (Part A 100mg BD solution (N=4)): 0 Number (%) of patients
Dyspnea, Any grade (Part A 100mg BD solution (N=4)): 2 (50.0) Number (%) of patients
Dyspnea, CTCAE grade 1-2 (Part A 100mg BD solution (N=4)): 2 (50.0) Number (%) of patients
Dyspnea, CTCAE grade >=3 (Part A 100mg BD solution (N=4)): 0 Number (%) of patients
Fatigue, Any grade (Part A 100mg BD solution (N=4)): 4(100.0) Number (%) of patients
Fatigue, CTCAE grade 1-2 (Part A 100mg BD solution (N=4)): 2 (50.0) Number (%) of patients
Fatigue, CTCAE grade >=3 (Part A 100mg BD solution (N=4)): 2 (50.0) Number (%) of patients
Hypokalemia, Any grade (Part A 100mg BD solution (N=4)): 0 Number (%) of patients
Hypokalemia, CTCAE grade 1-2 (Part A 100mg BD solution (N=4)): 0 Number (%) of patients
Hypokalemia, CTCAE grade >=3 (Part A 100mg BD solution (N=4)): 0 Number (%) of patients
Lower respiratory tract infection, Any grade (Part A 100mg BD solution (N=4)): 0 Number (%) of patients
Lower respiratory tract infection, CTCAE grade 1-2 (Part A 100mg BD solution (N=4)): 0 Number (%) of patients
Lower respiratory tract infection, CTCAE grade >=3 (Part A 100mg BD solution (N=4)): 0 Number (%) of patients
Mucositis, Any grade (Part A 100mg BD solution (N=4)): 3 (75.0) Number (%) of patients
Mucositis, CTCAE grade 1-2 (Part A 100mg BD solution (N=4)): 3 (75.0) Number (%) of patients
Mucositis, CTCAE grade >=3 (Part A 100mg BD solution (N=4)): 0 Number (%) of patients
Nausea, Any grade (Part A 100mg BD solution (N=4)): 4 (100.0) Number (%) of patients
Nausea, CTCAE grade 1-2 (Part A 100mg BD solution (N=4)): 4 (100.0) Number (%) of patients
Nausea, CTCAE grade >=3 (Part A 100mg BD solution (N=4)): 0 Number (%) of patients
Pruritus, Any grade (Part A 100mg BD solution (N=4)): 0 Number (%) of patients
Pruritus, CTCAE grade 1-2 (Part A 100mg BD solution (N=4)): 0 Number (%) of patients
Pruritus, CTCAE grade >=3 (Part A 100mg BD solution (N=4)): 0 Number (%) of patients
Rash, Any grade (Part A 100mg BD solution (N=4)): 0 Number (%) of patients
Rash, CTCAE grade 1-2 (Part A 100mg BD solution (N=4)): 0 Number (%) of patients
Rash, CTCAE grade >=3 (Part A 100mg BD solution (N=4)): 0 Number (%) of patients
Vomiting, Any grade (Part A 100mg BD solution (N=4)): 4 (100.0) Number (%) of patients
Vomiting, CTCAE grade 1-2 (Part A 100mg BD solution (N=4)): 4 (100.0) Number (%) of patients
Vomiting, CTCAE grade >=3 (Part A 100mg BD solution (N=4)): 0 Number (%) of patients
grade 3 or 4 hyperglycemia (RP2D of 50 mg BD): no grade 3 or 4 hyperglycemia was seen
fatigue, most common AEs (at the MTD (50 mg BD)): 78%
fatigue, nausea and mucositis equal to or greater than grade 3, patients (at the MTD (50 mg BD)): 5%
nature of the dose limiting toxicities (dose range 25-100 mg): fatigue and mucositis
recommended phase II dose (RP2D) (oral, continuous twice daily dosing): 50 mg BD
maximally tolerated dose (MTD) (oral, continuous twice daily dosing, solution): 50 mg BD
pneumonitis (phase I study): no patients were diagnosed with pneumonitis; also recorded: no instances of pneumonitis
Anemia, Any grade (total (N=56)): 9 (16.1) Number (%) of patients
Anemia, CTCAE grade 1-2 (total (N=56)): 7 (12.5) Number (%) of patients
Anemia, CTCAE grade >=3 (total (N=56)): 2 (3.6) Number (%) of patients
Back pain, Any grade (total (N=56)): 9 (16.1) Number (%) of patients
Back pain, CTCAE grade 1-2 (total (N=56)): 8 (14.3) Number (%) of patients
Back pain, CTCAE grade >=3 (total (N=56)): 1 (1.8) Number (%) of patients
Constipation, Any grade (total (N=56)): 16 (28.6) Number (%) of patients
Constipation, CTCAE grade 1-2 (total (N=56)): 16 (28.6) Number (%) of patients
Constipation, CTCAE grade >=3 (total (N=56)): 0 Number (%) of patients
Cough, Any grade (total (N=56)): 12 (21.4) Number (%) of patients
Cough, CTCAE grade 1-2 (total (N=56)): 12 (21.4) Number (%) of patients
Cough, CTCAE grade >=3 (total (N=56)): 0 Number (%) of patients
Decreased appetite, Any grade (total (N=56)): 26 (46.4) Number (%) of patients
Decreased appetite, CTCAE grade 1-2 (total (N=56)): 26 (46.4) Number (%) of patients
Decreased appetite, CTCAE grade >=3 (total (N=56)): 0 Number (%) of patients
Diarrhea, Any grade (total (N=56)): 23 (41.1) Number (%) of patients
Diarrhea, CTCAE grade 1-2 (total (N=56)): 23 (41.1) Number (%) of patients
Diarrhea, CTCAE grade >=3 (total (N=56)): 0 Number (%) of patients
Dry mouth, Any grade (total (N=56)): 10 (17.9) Number (%) of patients
Dry mouth, CTCAE grade 1-2 (total (N=56)): 10 (17.9) Number (%) of patients
Dry mouth, CTCAE grade >=3 (total (N=56)): 0 Number (%) of patients
Dyspnea, Any grade (total (N=56)): 11 (19.6) Number (%) of patients
Dyspnea, CTCAE grade 1-2 (total (N=56)): 9 (16.1) Number (%) of patients
Dyspnea, CTCAE grade >=3 (total (N=56)): 2 (3.6) Number (%) of patients
Fatigue, Any grade (total (N=56)): 42 (75.0) Number (%) of patients
Fatigue, CTCAE grade 1-2 (total (N=56)): 36 (64.3) Number (%) of patients
Fatigue, CTCAE grade >=3 (total (N=56)): 6 (10.7) Number (%) of patients
Hypokalemia, Any grade (total (N=56)): 9 (16.1) Number (%) of patients
Hypokalemia, CTCAE grade 1-2 (total (N=56)): 8 (14.3) Number (%) of patients
Hypokalemia, CTCAE grade >=3 (total (N=56)): 1 (1.8) Number (%) of patients
Lower respiratory tract infection, Any grade (total (N=56)): 9 (16.1) Number (%) of patients
Lower respiratory tract infection, CTCAE grade 1-2 (total (N=56)): 7 (12.5) Number (%) of patients
Lower respiratory tract infection, CTCAE grade >=3 (total (N=56)): 2 (3.6) Number (%) of patients
Mucositis, Any grade (total (N=56)): 30 (53.6) Number (%) of patients
Mucositis, CTCAE grade 1-2 (total (N=56)): 27 (48.2) Number (%) of patients
Mucositis, CTCAE grade >=3 (total (N=56)): 3 (5.4) Number (%) of patients
Nausea, Any grade (total (N=56)): 30 (53.6) Number (%) of patients
Nausea, CTCAE grade 1-2 (total (N=56)): 28 (50.0) Number (%) of patients
Nausea, CTCAE grade >=3 (total (N=56)): 2 (3.6) Number (%) of patients
Pruritus, Any grade (total (N=56)): 13 (23.2) Number (%) of patients
Pruritus, CTCAE grade 1-2 (total (N=56)): 13 (23.2) Number (%) of patients
Pruritus, CTCAE grade >=3 (total (N=56)): 0 Number (%) of patients
Rash, CTCAE grade 1-2 (total (N=56)): 16 (28.6) Number (%) of patients
Rash, CTCAE grade >=3 (total (N=56)): 3 (5.4) Number (%) of patients
Vomiting, Any grade (total (N=56)): 16 (28.6) Number (%) of patients
Vomiting, CTCAE grade 1-2 (total (N=56)): 15 (26.8) Number (%) of patients
Vomiting, CTCAE grade >=3 (total (N=56)): 1 (1.8) Number (%) of patients
